Source: a melting point compilation (Tetko et al.; mined from patent text by program, amines drawn as free bases though some values may be those of a salt)

| Structure (SMILES) | melting point |
| --- | --- |
| Cc1cc(SCc2cccc3nn(-c4ccc(C(F)(F)F)cc4)cc23)ccc1OCC(=O)O | 105 to 108 °C |
| CC(=O)c1ccc(F)c(S(N)(=O)=O)c1 | 135 °C |
| COc1ncc(C(=O)O)cc1OC1CCCC1 | 191 to 192 °C |
| CCCN1N=C2C(=Cc3ccccc3)CS(=O)(=O)CC2C1c1ccccc1 (configuration not stated) | 197 to 199 °C |
| O=C(Nc1ccccn1)Nc1csc(-c2ccccn2)n1 | 233 to 235 °C |
| CCOC(=O)c1cnc2sc(-c3ccc([N+](=O)[O-])cc3)c(C)c2c1O | 260 to 261 °C |
| O=C(Nc1ccc(F)cc1F)c1cccc(Oc2cccc(Cl)c2)n1 | 116 to 117 °C |
| COC(=O)Cc1cnc(-c2ccccc2)n1Cc1ccccc1 | 78 to 79 °C |
| CC(O)c1cc2cc(OCC(=O)O)c(Cl)c(Cl)c2s1 (configuration not stated) | 173 to 175 °C |
| Nc1ccc2c(c1)C=C(C(=O)O)C(C(F)(F)F)O2 (configuration not stated) | 126 to 133 °C |
| CCOC(=O)c1ccc(-c2nn(Cc3ccccc3)c3ccccc23)cc1 | 95 to 96 °C |
| COC1=C(C)C(=O)OC1O (configuration not stated) | 79 °C |
| O=C(OCC1CCCCO1)c1ccccc1Nc1ccnc2cc(Cl)ccc12 (configuration not stated) | 93 to 94 °C |
| CCN(C(=O)C(F)(F)F)c1ccc(C(=O)O)cc1 | 132 °C |
| O=C(Nc1cccc(C(F)(F)F)c1F)c1ccccc1NCc1ccc(=O)[nH]c1 | 185 to 186 °C |
| C[Si](C)(C)N1Cc2ccccc2P1(=O)c1ccccc1 (configuration not stated) | 90 to 94 °C |
| CC(NC1=NS(=O)(=O)c2cc(Br)ccc2N1)C(C)(C)C (configuration not stated) | > 220 °C |
| COC(=O)C(C)(C)OCc1cc2cc(Cl)ccc2n1S(=O)(=O)c1ccc2sc(C)nc2c1 | 132 to 134 °C |
| Cc1nc2c(OCc3ccccc3)cc(C(=O)N(C)C)cc2n1COCC[Si](C)(C)C | 118 to 120 °C |
| CC(C)c1ccc2[nH]c3c(c2c1)Cc1ccccc1-3 | 193 °C |
| COc1cc(NS(C)(=O)=O)ccc1-c1nc2cc3c(cc2[nH]1)NC(=O)C3(C)C | > 300 °C |
| O=C(NC1CC1)c1ccc(N2CCN(Cc3cnc4c(c3)[nH]c(=O)n3cccc43)CC2)cc1 | 270 to 272 °C |
| Cc1ccn2c(-c3ccnc(-c4ccc(OCCN5CCCC5)cc4)c3)c(-c3cccc(C)n3)nc2c1 | 163 °C |
| O=c1c(CCCCO)c(O)c2cccnc2n1-c1ccccc1 | 206 °C |

| Structure (SMILES) | melting point |
| --- | --- |
| O=C(NC1CCN(CCC2CCOc3ccccc32)CC1)c1ccncc1 (configuration not stated) | 122 to 123 °C |
| Cc1cccc(NC(=O)NC2CN(C(=O)C3CC3)c3ccccc3N(CC(=O)c3ccccc3C)C2=O)c1 (configuration not stated) | 207 to 209 °C |
| CC1(C)CC(N(CCO)c2c([O-])[c+](N(CCO)C3CC(C)(C)NC(C)(C)C3)[c+]2[O-])CC(C)(C)N1 | 309 to 311 °C |
| CC1(C)CC(=O)c2c(O)ccc(Br)c2C1 | 65 to 67 °C |
| CCN1N=C(c2ccc3c(c2)CCC(=O)N3C)C(C)CC1=O (configuration not stated) | 170 to 172 °C |
| C[C@@H]1NC(=O)c2cccc(N)c2NC1=O | 320 °C |
| CCc1cc(OCCCN(C)Cc2ccc(OC)c(OC)c2)ccc1NC(=O)c1cccc2c(=O)c3cccc(F)c3[nH]c12 | 146 °C |
| CCN(CC)CC1CCCCN1CCNC(=O)N1c2ccc(Cl)cc2C(=O)Nc2cccnc21 (configuration not stated) | 138 to 140 °C |
| CCCCOC(=O)c1ccc(N2CCN(S(C)(=O)=O)CC2)cc1 | 145 to 150 °C |
| CC(C)c1c(O)cccc1O | 79 to 82 °C |
| O=C(NNC(=O)c1cccc([N+](=O)[O-])c1)c1cccc([N+](=O)[O-])c1 | 245 °C |
| CC(=O)OCc1ccc2oc(=O)c(C(=O)Oc3cc([N+](=O)[O-])ccc3[N+](=O)[O-])cc2c1 | 162 to 164 °C |
| COC(=O)c1ccc(Cl)cc1-n1c(CCl)nc2ccccc2c1=O | 155 to 157 °C |
| CNC(=NC#N)NCCCCc1nccc(NC(N)=NCCOC)n1 | 162 to 165 °C |
| CCOC(=O)C(=CN(CC)c1cccs1)C(=O)OCC | 41 to 42 °C |
| C=C(C)OC(=O)N1c2ccc(C)cc2NC(=O)C1(C)C | 185 °C |
| COc1cc(N(C)C)ccc1-c1nc2c(N[C@H]3[C@@H](C(N)=O)[C@@H]4C=C[C@H]3C4)c(Br)cnc2[nH]1 | 218 to 220 °C |
| Oc1cc2c(c3c1CC=CC3)Nc1ccccc1S2 | 166 °C |
| C[Si](C)(C)CCCCCCCNC(=O)n1cc(F)c(=O)[nH]c1=O | 118 to 119 °C |
| CCOC(=O)C=Cc1ccc(C(C)(C)C)c(NC(=O)CC2c3ccccc3Oc3ccccc32)c1 | 180 to 181 °C |
| COc1nc(N)nc(C(F)(F)F)n1 | 161 to 164 °C |
| COc1ccc(/C=N/Nc2nc(=O)[nH]cc2F)cc1 | 202 to 208 °C |
| CCCC=Cc1c(C(C)C)nc(C(C)C)c(C(=O)OCC)c1-c1ccc(CC)cc1 | 67 to 68 °C |
| NC(N)=Nc1nc(N2CCOCC2)nc2c1ccc1ccccc12 | 235 °C |

| Structure (SMILES) | melting point |
| --- | --- |
| COC(=O)C(C)c1cccc2c(=O)c3ccccc3ccc12 (configuration not stated) | 37 to 39 °C |
| COc1ccc(C=CC(=O)O)cc1-c1cc2c(cc1OCCCO)C(C)(C)CCC2(C)C | 198 to 200 °C |
| O=C(Nc1ccccc1)C1=C(O)c2cccc(-c3ccccc3)c2OS1 | 175 °C |
| O=C1N=Nc2ccccc21 | 232 to 233 °C |
| CC1c2cc(C(C)(C)C)cc(C(C)(C)C)c2OP(OCCNC(C)(C)C)Oc2c1cc(C(C)(C)C)cc2C(C)(C)C (configuration not stated) | 174 to 175 °C |
| O=C1c2ccccc2C(=O)N1OCc1ccco1 | 145 °C |
| COC(=O)c1ccc(OC)cc1Oc1cc(Cl)ccc1[N+](=O)[O-] | 121 to 123 °C |
| COc1cc(C=O)cc2c1OCCC2=O | 139 °C |
| COC(=O)c1ccc(Cl)cc1C(=O)c1ccccc1F | 115 to 116 °C |
| O=C(Oc1ccccc1)Oc1c2c(nc3ccccc13)CCN(C(=O)Oc1ccccc1)CC2 | 232 °C |
| CN(C)c1ncn2c1C[N+]([O-])=C(c1ccccc1F)c1cc(Cl)ccc1-2 | 203 to 206 °C |
| Cc1c(C(=O)O)c(=O)cc(-c2ccccc2)n1C | 220 to 225 °C |
| Cc1ncc(C#N)c(Nc2ccc3[nH]ccc3c2C)c1-c1ccc(OCCN2CCN(C)CC2)cc1 | 183 to 184 °C |
| CNc1ccccc1C(=O)NCCCn1ccnc1 | 138 to 141 °C |
| CSc1cc(=O)c2ccc(F)cc2s1 | 120 to 121 °C |
| CCC(=O)N1CCC(=NO)c2cc(F)ccc21 | 126 to 128 °C |
| CCn1ncc2c(O)c(C(=O)O)c(CCc3ccccc3)nc21 | 160 to 161 °C |
| CC(=O)c1ccc(OCc2cncnc2)cc1OC(CCC(=O)O)c1ccccc1C (racemic) | 142 to 144 °C |
| COc1ccc(S(=O)(=O)N2C(=O)C(=O)c3cc(Cl)ccc32)c(OC)c1 | 194 °C |
| COC(=O)CC(NCc1ccccc1)=C(C(=O)OC)C(=O)C(F)(F)F | 89.5 to 90.5 °C |
| Clc1cc(Cl)cc(-c2n[nH]cc2I)c1 | 170 °C |
| CN(C)C=NS(=O)(=O)c1cc2cnc(C=O)cc2o1 | 186 to 188 °C |
| C=CCc1cc(C=C2SCNC2=O)cc(CC=C)c1O | 184 to 188 °C |
| CC(C)c1cc2ncccc2cc1Oc1cnc(N)nc1N | 207 to 208 °C |
